Measured values as given in patent US20060160784A1, “Method for treating neurologic diseases” (priority 2005, published 2006).
“And” between values parts separate entries of the source, which are not always exact repeats. Equal entries are not always repeated.

System: G93A transgenic mice
Assay: Survival of G93A murine ALS model mice treated with MGd from symptom onset
Assay type: in vivo
Conditions: for survival interval (survival data used for plot B), individual animals: one value per mouse, unit days
Description: (§1) Transgenic mice which overexpress the G93A human Cu, Zn superoxide dismutase (SOD 1) mutant develop motor paralysis similar to amyotrophic lateral sclerosis (ALS) in humans. At 90-100 days of age, these mice develop hindlimb weakness which rapidly progresses to total body paralysis within 2-3 weeks. Such trangenic mice were used to evaluate the survival and neuroprotective action of MGd with G93A transgenic mice. In particular, the purpose of this study was to test the effect of MGd (administered at a loading dose of 5 mg/kg and a maintenance dose of 2.5 mg/kg/day i.p. thereafter).
Studies involved the use of G93A overexpressing mice purchased directly from JAX Labs. Due to the high variability in age of onset (of motor neuron disease or MND) and total survival, a mouse colony was bred using the JAX Labs protocols. […] Therefore, littermate males were chosen to sire subsequent offspring and used to produce 10-12 litters of age-matched mice for drug studies. Typically 50-60 transgenic mice were obtained from 10-12 litters and, within these groups, the variability in age of onset and survival was quite low.
(§2) The procedure used involved monitoring the transgenic mice from several litters for onset of symptoms of motor neuron degeneration. At symptom onset (muscle weakness), mice were randomly assigned sequentially to either Control (no treatment) or Treatment (MGd-treated) groups. Mice were sacrificed when moribund (unable to assume upright posture), as required by animal welfare protocol. Motexafin gadolinium formulated at 2 mM (2.3 mg/ml) in 5% aqueous mannitol was used for this study and the study group involved 10-11 animals in each group, 21 animals total.
At the onset of symptoms MGd was administered via i.p injection at a loading dose of 5 mg/kg and a maintenance dose of 2.5 mg/kg/day i.p injection. was administered thereafter.
as §1, with “(SOD1)” for “(SOD 1)”, “a” for “a loading”, “1” for “5 mg/kg and a maintenance dose of 2.5”, “i.p.).” for “i.p. thereafter).”
as §2, with “9” for “10-11”, “18” for “21”
At the onset of symptoms MGd was administered via i.p injection at a dose of 1 mg/kg/day.
as §1, with “a” for “a loading dose of 5 mg/kg and a maintenance”, “mg/kg/q.2d. and 2.5 mg/kg/q.4d. i.p.).” for “mg/kg/day i.p. thereafter).”
as §2, with “Motexafin gadolinium formulated at 2 mM (2.3 mg/ml) in 5% aqueous mannitol was used for this study and the study group involved 10-11 animals in each group, 21 animals total.” left out

Q: `CC(=O)[O-].CC(=O)[O-].CCc1c(CC)c2cc3nc(cnc4cc(OCCOCCOCCOC)c(OCCOCCOCCOC)cc4ncc4nc(cc1[n-]2)C(CCCO)=C4C)C(C)=C3CCCO.O.[Gd+3]` [MGd, Motexafin Gadolinium] was tested. Which “extension of mean survival over untreated control mice” value (Example 10, loading dose 5 mg/kg i.p., then 2.5 mg/kg/day i.p.) did it give?
A: roughly 2.7 fold

Q: And the “survival interval (survival data used for plot B), individual animals” value (shortened to “survival interval”) (Example 10, loading dose 5 mg/kg i.p., then 2.5 mg/kg/day i.p. from symptom onset)?
A: 53 days and 54 days and 26 days and 23 days and 21 days and 20 days and 46 days and 55 days and 36 days and 32 days

Q: And the mean survival (Example 10, loading dose 5 mg/kg i.p., then 2.5 mg/kg/day i.p., untreated control 13.4 days, p=4×10^−5)?
A: 36.6 days

Q: What about the “extension of mean survival over untreated control mice” value (Example 11, 1 mg/kg/day i.p.) of the same molecule?
A: roughly 2.5 fold

Q: What about the “survival interval” value (Example 11, 1 mg/kg/day i.p. from symptom onset, 1 mg/kg/day) of the same molecule?
A: 48 days and 41 days (2×) and 35 days (2×) and 49 days and 39 days and 52 days and 54 days

Q: What about the mean survival (Example 11, 1 mg/kg/day i.p., untreated control 17.2 days, p<1×10^−5) of the same molecule?
A: 43.8 days

Q: And the “extension of survival over untreated control mice” value (Example 12, 2.5 mg/kg/q.2d. i.p.)?
A: roughly 1.3 fold

Q: And the “survival interval” value (Example 12, 2.5 mg/kg/q.2d. i.p. from symptom onset, 2.5 mg/kg)?
A: 20 days and 37 days and 35 days and 30 days and 28 days (2×)

Q: And the mean survival (Example 12, 2.5 mg/kg/q.2d. i.p., untreated control 23 days, p=0.069)?
A: 30 days

Q: And the “extension of survival over untreated control mice” value (Example 12, 2.5 mg/kg/q.4d. i.p.)?
A: ~1.4 fold

Q: What about the “survival interval” value (Example 12, 2.5 mg/kg/q.4d. i.p. from symptom onset, 2.5 mg/kg) of the same molecule?
A: 30 days and 38 days and 20 days and 35 days and 26 days and 47 days

Q: What about the mean survival (Example 12, 2.5 mg/kg/q.4d. i.p., untreated control 23 days, p=0.068) of the same molecule?
A: 33 days
